Data as given in US10238689B2, “Methods for combating bacterial infections by killing persister cells with mitomycin C and/or cisplatin” (THE PENN STATE RESEARCH FOUNDATION, priority 2015, dated 2019).
Entries after “also recorded” stand apart in the source; their conditions may differ.

Columns and labels:
[1] = tested on: E. coli K-12 BW25113 biofilm; test: Biofilm dispersal assay (crystal violet); format: cell-based, Escherichia coli; settings: 24 h static growth then 24 h with MMC, 30° C., M9-glucose
Experimental: Cultures were incubated for an additional 24 h with or without MMC. Biofilm levels were assayed using crystal violet staining as described previously (Lee, et al., Appl. Environ. Microbiol. 75, 1703 (2009)). Cell growth (turbidity at 620 nm) was used to normalize the total biofilm formation (absorbance at 540 nm). Data points were averaged from 15 replicate wells using at least two independent cultures.

[2] = tested on: S. aureus biofilm cultures; test: Biofilm antibiotic killing assay; format: cell-based, Staphylococcus aureus; settings: minimal medium (modified M9-glucose), 24 h treatment, MMC 10 μg/mL, ciprofloxacin 5 μg/mL
[3] = tested on: P. aeruginosa PA14; test: Planktonic antibiotic killing assay; format: cell-based, Pseudomonas aeruginosa; settings: mid-stationary phase, rich medium; MMC 10 μg/mL, 3 h
Experimental: In order to obtain exponential and mid-stationary phase cultures in LB, buffered LB or TSB, overnight cultures (16 h) were diluted 1:1000 in fresh medium and grown to the desired turbidity (i.e., a turbidity below 2 at 600 nm for exponential phase and a turbidity of 3 to 4 at 600 nm for mid-stationary phase). Late-stationary phase cultures in LB or buffered LB were obtained by growing overnight cultures (16 h). In order to obtain exponential and late-stationary phase cultures in M9-glucose, overnight cultures (16 h) were washed diluted 1:1000 in M9-glucose and grown for the desired period of time (i.e., a turbidity of 0.4 at 600 nm for exponential phase and 24 h of growth for late-stationary phase). Anaerobically grown cultures were maintained with ˜20% CO2, ˜79% N2, and ˜1% H2. In order to obtain rifampicin-induced persister cultures in buffered LB, overnight cultures (16 h) were diluted 1:1000 in fresh medium and grown to a turbidity of 0.8 at 600 nm. Cultures were exposed to rifampicin (100 μg/mL) for 30 min, centrifuged, and resuspended in fresh medium to remove the rifampicin.

[4] = tested on: E. coli K-12 persister cells; test: Rifampicin-induced persister cell killing assay; format: cell-based, Escherichia coli
Experimental: Rifampicin-pretreatment was used to convert nearly all the E. coli exponentially-growing cells to persister cells. In brief, overnight cultures (16 h) of E. coli BW25113 were diluted 1:1000 in buffered LB and grown to a turbidity of 0.8 at 600 nm (250 mL flask, 250 rpm). Cultures were treated with rifampicin (100 μg/mL) for 30 min (250 mL flask, 250 rpm), centrifuged, and resuspended in fresh medium to remove the rifampicin. A 1 mL culture was used for a drop assay to check cell viability at 0 h. […] After 3 h, 1 mL of culture was centrifuged at 10,000 rpm for 3 min, the supernatant was discarded, the cells were resuspended in 1 mL of normal saline, and the cell suspension was serially diluted for a drop assay to check cell viability. In addition, 1 mL samples were centrifuged, and the cell pellet resuspended in 150 μL of normal saline and spread on LB agar.
To test whether lower concentrations than 500 μg/mL of cisplatin generate resistant mutants, 5 mL cultures of rifampicin-induced persister cells were treated with 200 μg/mL of cisplatin and cells were enumerated by the drop assay using LB agar, LB agar with 200 μg/mL of cisplatin (LBCP200), and LB agar with 500 μg/mL of cisplatin (LBCP500).

[5] = tested on: enterohemorrhagic E. coli (EHEC); test: Persister cell assay of pathogens (stationary phase); format: cell-based, Escherichia coli; settings: stationary-phase cells, buffered LB; cisplatin 500 μg/mL, 5×MIC, 3 h
Experimental: (§1) For the persister cell assay of the pathogens, stationary-phase cells were used. Cultures of EHEC, P. aeruginosa, and S. aureus were prepared by a 1:1000 dilution of overnight grown cultures (LB medium for EHEC and P. aeruginosa, TSB for S. aureus) into fresh buffered LB medium for EHEC, M9-glucose for P. aeruginosa, and TSB for S. aureus and re-growing the cells to a turbidity of 3 to 4 at 600 nm for EHEC and S. aureus and growing for 24 h for P. aeruginosa. Stationary-phase cultures of EHEC (buffered LB medium), P. aeruginosa (M9-glucose medium), and S. aureus (TSB medium) were then treated with cisplatin (500 μg/mL for EHEC and S. aureus, 250 μg/mL for P. aeruginosa) for 3 h (250 mL flask, 250 rpm).

[6] = tested on: S. aureus ATCC29213; test: as above; format: cell-based, Staphylococcus aureus; settings: stationary phase cells, TSB; cisplatin 500 μg/mL, 1.7×MIC, 3 h
Experimental: as §1

[7] = treatment with 2×MIC (200 μg/mL) of cisplatin

SMILES	biofilm dispersal [1]	survival [2]	survival [3] [%]	colonies from 1 mL samples ([4]; after the 3 h cisplatin treatment (500 μg/mL)) [colonies]	number of persister cells after treatment (drop assay) ([4]; cisplatin 500 μg/mL, 3 h, limit of detection) [cells/mL]	colonies on LBCP500 agar plates (spontaneous resistant mutants) [4, 7]	survivors on LBCP200 agar plates [4, 7] [%]	cell viability after treatment [5]	survival [6] [%]
CO[C@@]12[C@H](COC(N)=O)C3=C(C(=O)C(C)=C(N)C3=O)N1C[C@@H]1N[C@@H]12 [MMC, mitomycin C]	does not cause biofilm dispersal; also recorded: did not cause biofilm dispersal	eradicating cells beyond the limit of detection	0.0038±0.0005						
N.N.[Cl][Pt][Cl] [cisplatin, cis-diamminodichloroplatinum(II)]				37±5	< 100	no colonies were found	0.08	eradicated	0.0001±0.0001
